Entries after “also recorded” stand apart in the source; their conditions may differ.
How the values were obtained:
[1] = Visual assessment of CBDA solubility in overlay oils; assay type: physicochemical; settings: CBDA as hemp oil with 50% CBDA, target concentration greater than 50 g/L
Protocol: Visual appearances of solutions containing CBDA (as hemp oil with 50% CBDA) were assessed for JARCOL™ I-16, soybean oil, castor oil, ESTEREX™ A 51, sunflower oil, DRAKEOL® 19, and DURASYN® 164. A target CBD concentration of greater than 50 g/L was desired for this set of experiments. Upon visual inspection, it was determined that CBDA was soluble in JARCOL™ I-16, soybean oil, castor oil, ESTEREX™ A 51, and sunflower oil, but was insoluble in DRAKEOL® 19 and DURASYN® 164 at the target concentration. Insolubility was evidenced by the presence of precipitates in solutions of DRAKEOL® 19 or DURASYN® 164 (FIG. 9).

[2] = tested on: wild-type yeast (strain Y46850); test: Growth of wild-type yeast in culture media containing an overlay oil (optical density); assay type: cell-based, S. cerevisiae
Protocol: The ability of yeast cells (S. cerevisiae) to grow normally in culture media containing an overlay oil was assessed. Wild-type yeast (strain Y46850) was cultured in the presence of soybean oil, sunflower oil, safflower oil, castor oil, or JARCOL™ I-16. Cell growth was measured by assessing the optical density (OD) of the yeast culture suspensions in three independent experiments (SF1, SF2, and SF3) (FIGS. 1-3).

[3] = Solubility of hexanoate in soybean oil by gas chromatography (GC-FID); settings: oil or lipid
[4] = oil/hemp oil 10:1 v/v, visual inspection
[5] = oil/hemp oil 10:1 v/v, visual inspection (precipitates)

C=C(C)[C@@H]1CCC(C)=C[C@H]1c1c(O)cc(CCCCC)c(C(=O)O)c1O [CBDA, cannabidiolic acid]
Solubility of CBDA in JARCOL I-16 [1, 4]: soluble; also recorded: good solubility
Solubility of CBDA in castor oil [1, 4]: soluble; also recorded: good solubility
Solubility of CBDA in soybean oil [1, 4]: soluble; also recorded: good solubility
Solubility of CBDA in DRAKEOL 19 [1, 5]: insoluble; also recorded: lower solubility
Solubility of CBDA in DURASYN 164 [1, 5]: insoluble; also recorded: lower solubility
Solubility of CBDA in ESTEREX A 51 ([1]; visual inspection): soluble
Solubility of CBDA in sunflower oil ([1]; visual inspection): soluble

CCCCCCCCC(CO)CCCCCC (centres unmarked) [JARCOL™ I-16]
Cell growth (optical density) versus control (no oil) ([2]; flask experiment SF2, strain Y46850 (FIG. 2)): not significantly different
Cell growth (optical density) versus control (no oil) ([2]; flask experiment SF3, strain Y46850 (FIG. 3)): not significantly different
Cell growth (optical density) versus control (no oil) ([2]; wild-type yeast strain Y46850 cultured with overlay oil, three independent experiments SF1, SF2, SF3): not significantly different

CCCCCC(=O)O [hexanoate]
solubility [3]: ≤ 185 mg/mL

— patent US20240368640A1, “METHODS OF PURIFYING CANNABINOIDS” (AMYRIS, INC., priority 2021, published 2024)
